This test is filed under the species Rattus norvegicus. The experiment in a line: Evaluated for the efficacy in stimulating cAMP synthesis by beta-1-adrenoceptor in rat cerebral cortex. The test is classed as functional.

`CC(=O)Oc1ccc(C(O)CNC(C)C)cc1OC(C)=O` (configuration not stated) [DIACETYLISOPROTERENOL] registered an Efficacy of 1.
The compound `CC(=O)Oc1ccc(C(Cl)CNC(C)C)cc1OC(C)=O` (configuration not stated) gave an Efficacy of 1.

(Values after ChEMBL document CHEMBL1122882, “3,4-O-diacetylisoproterenol. Preparation, structure proof, and beta-receptor effect” (1985).)
